In PubChem BioAssay AID2252 (Southern Research Specialized Biocontainment Screening …, 2010):

What follows are compounds tested on THP-1 viability, CellTiter-Glo luminescence, 72 h (assay: PubChem AID 2252).

Row | SMILES | EC50 [µM]
1 | C#CCOCCOCCOCCNc1nc(N2CCN(C(=O)CCCCCCCCCCNC(=O)[C@H](CO)n3cc(CCCSC)nn3)CC2)nc(N2CCN(C(=O)CCCCCCCCCCNC(=O)[C@H](CCCN=C(N)N)n3cc(C[C@@H](C)CC)nn3)CC2)n1 | 9.01
2 | COc1cccc(Nc2nc(NCCO)c3ccccc3n2)c1 | 2.26
3 | Nc1c2ccccc2nc2ccccc12 | 4.83
4 | C=CCn1c(NS(=O)(=O)c2ccccc2)c(S(=O)(=O)c2ccc(C)cc2)c2nc3ccccc3nc21 | 40.9
5 | Cc1cccc(/C(N)=N/OC(=O)N2CCOCC2)c1 | 8.03
6 | COc1cc(CNCCc2c[nH]c3ccccc23)ccc1OCc1ccc(F)cc1 | 6.34
7 | CC(C)C1N=C(c2ccc3c(c2)OCO3)CC(c2ccccc2O)N1 (stereo not drawn) | 43.3
8 | CC(NCc1ccccc1O)C12CC3CC(CC(C3)C1)C2 (stereo not drawn) | 41.6
9 | CCCCCCCCCCCCCCCCn1cc[n+](C)c1 | 0.74
10 | Clc1ccc(OCCCNCc2ccccc2)c(Br)c1 | 13.7
11 | Cc1ccc2nc(N(CCCN(C)C)C(=O)c3sc4ccccc4c3Cl)sc2c1 | 28.1
12 | N#C/C(=N\Nc1ccc([N+](=O)[O-])cc1)C(N)=S | 29
13 | COc1ccc(CCN2CCC(Nc3nc4ccccc4n3Cc3ccc(F)cc3)CC2)cc1 | 3.8
14 | CCc1nc(SCC(=O)Nc2ccc(N(C)C)cc2)c2ccccc2n1 | 35.3
15 | CCCCCCCCCC[N+](C)(C)CC/C=C1/c2ccccc2Sc2ccc(Cl)cc21 | 1.99
16 | Cc1ccc2nc(NCc3ccccc3)[nH]c2c1 | 3.85
17 | CN1/C(=C\C=C\C2=[N+](C)c3ccc4ccccc4c3C2(C)C)C(C)(C)c2ccccc21 | 0.2
18 | CCn1cc(C(=O)NCCc2ccccc2)c(=O)c2cc(F)c(N3CCN(C)CC3)cc21 | 35.4
19 | O=C(/C=C/c1ccc(Cl)cc1)NCCCn1ccnc1 | < 0.1
20 | Oc1[nH]c2ccc(Br)cc2c1N=NC(=S)N1CCOCC1 | 1.82
21 | O=C1C=C(c2ccc(Cl)cc2)C(=O)N1Nc1ccccc1 | 5.96
22 | Oc1c(CN2CCOCC2)cc(COCc2ccccc2)c2cccnc12 | 2.24

Row | SMILES | EC50 [µM]
23 | Cc1ccc(OCC(O)Cn2c(=N)n(CCN3CCCCC3)c3ccccc32)cc1 (stereo not drawn) | 5.35
24 | COc1cccc(CNC23CC4CC(CC(C4)C2)C3)c1OCc1ccccc1 | 22.3
25 | COc1ccc(OC)c(S(=O)(=O)N2CCC(C(=O)NCc3ccccc3OC)CC2)c1 | < 0.1
26 | CC1(C)N=C(N)N=C(N)N1c1ccc(Oc2ccc(Cl)cc2)c(Cl)c1 | 2.45
27 | CN1CCN(CCCN2c3ccccc3Sc3ccc(C(F)(F)F)cc32)CC1 | 10.3
28 | COC(=O)c1cc(CSC(=N)N)ccc1OCCC(C)C | 14.7
29 | C#CCOCCOCCOCCNc1nc(N2CCN(C(=O)CCCCCCCCCCNC(=O)[C@H]([C@@H](C)CC)n3cc(CCCCCN)nn3)CC2)nc(N2CCN(C(=O)CCCCCCCCCCNC(=O)[C@@H]([C@H](C)O)n3cc(C)nn3)CC2)n1 | 13
30 | CCCC(=O)NC(c1ccco1)c1cc([N+](=O)[O-])c2cccnc2c1O (stereo not drawn) | 22.9
31 | O=C(N/N=C/c1ccccc1O)C1SCCCS1 | 26.1
32 | CC1CC(C)CN(C(=O)c2ccc(NC(=O)c3ccc(=O)[nH]c3)cc2)C1 (stereo not drawn) | 33
33 | Cc1nc(NC2=NCN(CCCN3CCOCC3)CN2)nc2c(C)cccc12 | 13.9
34 | Clc1ccc(CN2CCc3c([nH]c4ccccc34)C2)cc1Cl | 8.16
35 | O/N=C/C1=C(Cl)c2ccccc2CC1 | < 0.1
36 | C/C(=N\NC(=O)c1ccc(CN2CCc3ccccc3C2)cc1)c1ccccc1O | 7.89
37 | CCOc1ccc(Nc2nc(NCC3CCCO3)c3ccccc3n2)cc1 (stereo not drawn) | 2.28
38 | N#C/C(N=Nc1ccccc1O)=N\Nc1ccccc1O | 4.42
39 | CCCCCCCCCCCCCCCC[n+]1ccc(C(N)=O)cc1 | 0.68
40 | Cc1ccc(N=Cc2cc(Br)cc(Cl)c2O)cc1 | 49.5
41 | Oc1ccccc1N=Cc1c(O)ccc2oc3c(c12)CCCC3 | 45.8
42 | CN1CCN(c2ccccc2NC(=O)c2cc3c(s2)-c2ccccc2OC3)CC1 | 9.73
43 | COc1cc([N+](=O)[O-])cc(/C=N/NC(=O)C(O)(c2ccccc2)c2ccccc2)c1O | 25.4
44 | C=C1c2c(Cl)ccc(O)c2C(O)=C2C(=O)[C@]3(O)C(O)=C(C(N)=O)C(=O)[C@@H](N(C)C)[C@@H]3[C@@H](O)C12 (stereo partly drawn) | 13.4

Row | SMILES | EC50 [µM]
45 | O=C(N/N=C/c1ccc([N+](=O)[O-])o1)C1CCCC1 | < 0.1
46 | Cc1ccc2c(c1)C1CN(C)CCC1N2Sc1ccccc1[N+](=O)[O-] (stereo not drawn) | 21.1
47 | CC1Cc2ccccc2N1S(=O)(=O)c1cccc(C(=O)N2CC(=O)Nc3ccccc32)c1 (stereo not drawn) | 46.1
48 | O=C(NCc1ccco1)C1CCN(C(=O)c2cc3sccc3n2Cc2ccc(Cl)cc2)CC1 | 27.8
49 | Cc1ccc(-c2csc(NC(=O)C[n+]3cc(-c4ccc(C)cc4)n4c3CCC4)n2)cc1 | 8.33
50 | COc1ccc(NC2=NC3(CCCCC3)N=C(N)N2)cc1 | 27
51 | COc1cccc2[nH]c3c(N4CCN(Cc5ccc6c(c5)OCO6)CC4)ncnc3c12 | 42.2
52 | O=C(C[n+]1cn(C(F)F)c2ccccc21)c1ccc(Br)cc1 | 35.8
53 | O=C(CNC(=O)c1ccccc1)N/N=C/c1ccc([N+](=O)[O-])s1 | 16.9
54 | Cc1cc(C)c2sc(N(CCCN(C)C)C(=O)COc3ccc(Cl)cc3)nc2c1 | 17.7
55 | O=C(Cc1cccs1)N/N=C\c1ccc([N+](=O)[O-])s1 | 12.5
56 | CCC(/C=C1\Sc2ccc(OC)cc2N1CCO)=C\c1sc2ccc(OC)cc2[n+]1CCO | 8.14
57 | COc1ccc(CNCCc2ccc(Cl)cc2)cc1OCc1ccccc1 | 24.5
58 | CC(=O)CC1OC(=O)C(Br)=C1NCc1ccccc1 (stereo not drawn) | 9.9
59 | Cc1ccc(NC(=O)c2ccc([N+](=O)[O-])o2)c(C)c1 | 12.1
60 | O=C(CNC(=O)c1cccc(F)c1)N/N=C/c1ccc([N+](=O)[O-])s1 | 25.6
61 | Cc1nc2ccccn2c1C(=O)N/N=C/c1ccc([N+](=O)[O-])o1 | 13.9
62 | Nc1ncn(C2O[C@H](CO)[C@@H](O)[C@H]2O)c(=O)n1 (stereo partly drawn) | 14
63 | CC1(C)CC(N2CCN(c3ccccc3)CC2)=CC(=[N+]2CCCC2)C1 | 8.86
64 | CN(C)c1ccc(/C=C/c2ccc3ccccc3[n+]2C)cc1 | 0.71
65 | c1ccc(CN2CCN(c3ncnc4c3[nH]c3ccccc34)CC2)cc1 | 20
66 | O=C(C[n+]1cnn(CC(=O)c2ccc(Cl)cc2Cl)c1)c1ccc([N+](=O)[O-])cc1 | 26.4

Row | SMILES | EC50 [µM]
67 | N=c1c2c(n(Cc3ccc(Cl)cc3Cl)c3c1CCC3)CCCC2 | 3.66
68 | CN(C)CCNC(=O)/C(=C/c1ccc(-c2ccc(Cl)cc2)o1)NC(=O)c1ccccc1 | 11.3
69 | Cc1cc(N/N=C/c2ccc(O)cc2)c2cccc(C)c2n1 | 7.3
70 | C#CCOCCOCCOCCNc1nc(N2CCN(C(=O)CCCCCCCCCCNC(=O)Cn3cc(C[C@@H](C)O)nn3)CC2)nc(N2CCN(C(=O)CCCCCCCCCCNC(=O)[C@H](CCCN=C(N)N)n3cc(C[C@@H](C)CC)nn3)CC2)n1 | 14.3
71 | CCOC(=O)c1c(C)[nH]c(C(=O)CN2C(=O)NC(C)(c3ccc4ccccc4c3)C2=O)c1C (stereo not drawn) | 39.1
72 | COc1cccc(/C=N/NC(=O)C(=O)N2CCCC2)c1O | 40
73 | CN(C)CCNC(=O)c1ccc(COc2ccc(Cl)cc2Cl)cc1 | 13.8
74 | CCOC(=O)CNC(=O)Cn1c(C)cc2ccccc2c1=O | 40.9
75 | COc1ccc(OCc2n(CC(=O)OC3CC(C)CCC3C(C)C)c3ccccc3[n+]2C)cc1 (stereo not drawn) | 1.63
76 | O=C(N/N=C/c1ccc([N+](=O)[O-])o1)c1ccc(O)cc1 | 13.1
77 | O=[N+]([O-])c1cc(/C=N/Nc2nc3ccccc3[nH]2)c(O)cc1O | 1.7
78 | C1=C(CCNc2ncnc3c2[nH]c2ccccc23)CCCC1 | 5.45
79 | O=C1c2cccc3cccc(c23)C(=O)C1(O)O | 30.2
80 | O=C(N/N=C/c1cc([N+](=O)[O-])ccc1O)C1CC1 | 27.7
81 | CC(=O)Nc1nc(C)c(-c2csc(Nc3ccc(O)cc3)n2)s1 | 4.01
82 | Cc1cc(C)n(-c2nc(NCCN(C)C)c3c4c(sc3n2)CCCC4)n1 | 4.39
83 | CCCCCCCCCCOC(=O)Cn1c(COc2ccc(C)cc2)[n+](C)c2ccccc21 | 2.36
84 | Cc1nn(Cc2ccccc2Cl)c2sc(C(=O)Nc3ccccc3N3CCOCC3)cc12 | 20.4
85 | [O-][n+]1c2c(c3c4non(O)c4ccc31)CCCC2 | 47.7
86 | COc1cccc(/C=N/NC(=O)c2ccoc2C)c1O | 4.3
87 | Cc1ccc(Nc2nc(N)c3ccccc3n2)cc1Cl | 13.7
88 | OCCN1CCN(C2CCC(c3ccc(F)cc3)c3ccc(F)cc32)CC1 (stereo not drawn) | 9.55

Row | SMILES | EC50 [µM]
89 | O=c1c2ccccc2nc(COc2ccccc2)n1/N=C/c1ccc(O)cc1O | 1.46
90 | N=c1n(CCN2CCCCC2)c2ccccc2n1CC(=O)c1ccc(Cl)c(Cl)c1 | 20.4
91 | CCn1cc(C(=O)O)c(=O)c2cc(F)c(N3CCN(S(=O)(=O)c4ccc(NC(C)=O)cc4)CC3)cc21 | 47.2
92 | CC(=O)Nc1ccc(NC(=O)CSc2ccc(-c3ccco3)nn2)cc1 | < 0.1
93 | CC(C(=O)NC1C=CS(=O)(=O)C1)N1C(=O)/C(=C/c2ccc(Cl)cc2)SC1=S (stereo not drawn) | 25.7
94 | CC(/C=N/Nc1nc2ccccc2[nH]1)=C\c1ccccc1 | 33.4
95 | CCCN(CCC)CCNC(=O)C1CCN(Cc2nc(-c3ccc(Cl)cc3)oc2C)CC1 | 24.8
96 | CCN(CC)CCNc1nc(-c2ccc(OC)cc2)c(-c2ccc(OC)cc2)s1 | 22.3
97 | Cc1ccc2c(c1)c1c(n2CC(O)CNC2CCCCC2)CCCC1 (stereo not drawn) | 7.7
98 | COC(=O)C1C(O)C(C)C(O)C(C)/C=C\C=C(/C)C(=O)Nc2c(C)c(OC(C)=O)c3c(c2O)C(=O)C(C)=C2OCOC(=C23)/C(C)=C/C(C)(O)C(O)C(C)C1O (stereo not drawn) | < 0.1
99 | O=[N+]([O-])c1cccc2c(N3CCCC3)ccnc12 | 9.77
100 | COc1cc([N+](=O)[O-])cc(/C=N/NC(=O)CSc2ccccn2)c1O | 34.7
101 | CC1=NN(c2nc3ccccc3[nH]2)C(=O)C1Cc1ccccc1 (stereo not drawn) | 1.85
102 | CNC[C@@H](Cc1ccccc1)NC[C@@H](CC1CCCCC1)NCCCc1ccccc1 | 3.56
103 | CCc1nn(CCCN2CCN(c3cccc(Cl)c3)CC2)c(=O)n1CCOc1ccccc1 | 42.4
104 | O=C(N/N=C/c1ccc([N+](=O)[O-])s1)C(O)c1ccccc1 (stereo not drawn) | 12.9
105 | COc1ccc2nc(Nc3ccccc3)sc2c1 | < 0.1
106 | COc1cc2c(cc1OC)[C@H](Cc1ccc(O)cc1)NCC2 | 23.4
107 | Clc1ccc(C[n+]2cc(-c3ccc(Cl)cc3)n3c2CCC3)cc1 | 22.7
108 | Nc1nc(=S)c2[nH]cnc2[nH]1 | 0.32
